Experimental data published in patent US10485800B2, “Mixed lineage kinase inhibitors for HIV/AIDS therapies” (UNIVERSITY OF ROCHESTER, priority 2012, dated 2019).
Structures can show the parent of a compound that is named as a salt. Where two headings read alike, the source gives them in different places.

Biological target: MLK3 (Homo sapiens (Human), UniProt Q16584)
Test: Radiometric filter plate MLK3 assay
Assay type: biochemical
Conditions: read-out: MK3 IC50
Experimental: After a twenty minute incubation, the reactions were washed through filter plates and read on a scintillation counter. Results are shown in Table 9 below, in which +++ indicates ≤0.1 μM, ++ indicates >0.1 μM and ≤1 μM, and + indicates >1 μM.

[1] = 2 μM cold ATP (Km), 1 μM inactive MKK7b, twenty minute incubation

Sequence of MLK3 (Q16584 whole entry): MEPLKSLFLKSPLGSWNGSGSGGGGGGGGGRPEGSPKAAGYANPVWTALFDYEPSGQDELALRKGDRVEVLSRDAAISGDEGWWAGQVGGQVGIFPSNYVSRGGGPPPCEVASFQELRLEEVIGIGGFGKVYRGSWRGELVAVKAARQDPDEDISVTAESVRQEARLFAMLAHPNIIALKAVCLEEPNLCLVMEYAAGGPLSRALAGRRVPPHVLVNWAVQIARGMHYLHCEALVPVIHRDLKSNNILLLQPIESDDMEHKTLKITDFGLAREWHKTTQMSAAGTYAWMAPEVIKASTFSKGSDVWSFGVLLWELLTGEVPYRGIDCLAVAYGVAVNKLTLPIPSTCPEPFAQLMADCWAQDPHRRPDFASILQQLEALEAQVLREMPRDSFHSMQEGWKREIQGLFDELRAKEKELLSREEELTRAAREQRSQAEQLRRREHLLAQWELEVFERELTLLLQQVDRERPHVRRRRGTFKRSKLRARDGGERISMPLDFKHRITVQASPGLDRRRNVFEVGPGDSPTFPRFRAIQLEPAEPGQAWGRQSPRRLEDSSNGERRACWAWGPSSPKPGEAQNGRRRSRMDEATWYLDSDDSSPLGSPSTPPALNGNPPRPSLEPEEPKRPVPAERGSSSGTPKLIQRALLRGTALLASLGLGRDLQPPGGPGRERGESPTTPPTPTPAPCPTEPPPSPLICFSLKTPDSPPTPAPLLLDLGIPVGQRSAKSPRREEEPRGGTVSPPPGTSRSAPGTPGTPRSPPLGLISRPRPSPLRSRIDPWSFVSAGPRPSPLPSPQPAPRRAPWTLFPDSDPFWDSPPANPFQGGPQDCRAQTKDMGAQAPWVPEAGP

IC50 [1] | IC50 | Compound
< 0.1 µM | – | CC(=O)N1CCN(C(=O)c2ccc(-c3cnc4[nH]cc(-c5ccc6[nH]ccc6c5)c4c3)cc2)CC1 [Example 146, 1-(4-{4-[3-(1H-indol-5-yl)-1H-pyrrolo[2,3-b]pyridin-5-yl]-benzoyl}-piperazin-1-yl)-ethanone]
– | < 0.1 µM | CN1CCN(C(=O)c2cccc(-c3cnc4[nH]cc(-c5ccc6[nH]ccc6c5)c4c3)c2)CC1 [Example 147, {3-[3-(1H-indol-5-yl)-1H-pyrrolo[2,3-b]pyridin-5-yl]-phenyl}-(4-methyl-piperazin-1-yl)-methanone]
< 0.1 µM | – | CC(C)(C)OC(=O)N1CCN(C(=O)c2ccc(-c3cnc4[nH]cc(-c5ccc(C(N)=O)cc5)c4c3)cc2)CC1 [Example 148, 4-{4-[3-(4-carbamoyl-phenyl)-1H-pyrrolo[2,3-b]pyridin-5-yl]-benzoyl}-piperazine-1-carboxylic acid tert-butyl ester]
< 0.1 µM | – | CC(C)(C)OC(=O)N1CCN(C(=O)c2cccc(-c3cnc4[nH]cc(-c5ccc(C(N)=O)cc5)c4c3)c2)CC1 [Example 151, 4-{3-[3-(4-carbamoyl-phenyl)-1H-pyrrolo[2,3-b]pyridin-5-yl]-benzoyl}-piperazine-1-carboxylic acid tert-butyl ester]
0.1 to 1 µM | – | COc1cc(-c2cc3c(-c4ccc(C(N)=O)cc4)c[nH]c3[n+]([O-])c2)cc(OC)c1OC [Example 154, 4-[7-oxy-5-(3,4,5-trimethoxy-phenyl)-1H-pyrrolo[2,3-b]pyridin-3-yl]-benzamide]
< 0.1 µM | – | CN1CCN(Cc2cccc(-c3cnc4[nH]cc(-c5ccc(C(N)=O)cc5)c4c3)c2)CC1 [Example 156, 4-{5-[3-(4-methyl-piperazin-1-ylmethyl)-phenyl]-1H-pyrrolo[2,3-b]pyridin-3-yl}-benzamide]
< 0.1 µM | – | CC(=O)N1CCN(Cc2ccc(-c3cnc4[nH]cc(-c5ccc(C(N)=O)cc5)c4c3)cc2)CC1 [Example 157, 4-{5-[4-(4-acetyl-piperazin-1-ylmethyl)-phenyl]-1H-pyrrolo[2,3-b]pyridin-3-yl}-benzamide]
< 0.1 µM | – | CN1CCN(Cc2ccc(-c3cnc4[nH]cc(-c5ccc(C(N)=O)cc5)c4c3)cc2)CC1=O [Example 158, 4-{5-[4-(4-methyl-3-oxo-piperazin-1-ylmethyl)-phenyl]-1H-pyrrolo[2,3-b]pyridin-3-yl}-benzamide]
< 0.1 µM | – | COc1cc(-c2cnc3[nH]cc(-c4ccc(CNC(C)=O)cc4)c3c2)cc(OC)c1OC [Example 159, N-{4-[5-(3,4,5-Trimethoxy-phenyl)-1H-pyrrolo[2,3-b]pyridin-3-yl]-benzyl}-acetamide]
< 0.1 µM | – | CN1CCN(Cc2ccc(-c3c[nH]c4ncc(-c5ccc(C(N)=O)cc5)cc34)cc2)CC1 [Example 162, 4-{3-[4-(4-methyl-piperazin-1-ylmethyl)-phenyl]-1H-pyrrolo[2,3-b]pyridin-5-yl}-benzamide]
> 1 µM | – | CN1CCN(Cc2ccc(-c3c[nH]c4ncc(-c5ccc6[nH]ccc6c5)cc34)cc2)CC1 [Example 163, 5-(1H-indol-5-yl)-3-[4-(4-methyl-piperazin-1-ylmethyl)-phenyl]-1H-pyrrolo[2,3-b]pyridine]
– | > 1 µM | CNC(=O)c1ccc(-c2c[nH]c3ncc(-c4cc(OC)c(OC)c(OC)c4)cc23)cc1 [Example 164, N-methyl-4-[5-(3,4,5-trimethoxy-phenyl)-1H-pyrrolo[2,3-b]pyridin-3-yl]-benzamide]
< 0.1 µM | – | CNC(=O)c1ccc(-c2c[nH]c3ncc(-c4ccc(CN5CCN(C)CC5)cc4)cc23)cc1 [Example 165, N-methyl-4-{5-[4-(4-methyl-piperazin-1-ylmethyl)-phenyl]-1H-pyrrolo[2,3-b]pyridin-3-yl}-benzamide]

Compound | IC50 [1] | IC50
NC(=O)c1ccc(-c2c[nH]c3ncc(-c4ccc(C(=O)N5CCNCC5)cc4)cc23)cc1 [Example 149, 4-{5-[4-(piperazine-1-carbonyl)-phenyl]-1H-pyrrolo[2,3-b]pyridin-3-yl}-benzamide, hydrochloride salt] | < 0.1 µM | –
